The target of this experiment is T1, recombinant guanylate cyclase reporter cell line (Rattus norvegicus, UniProt P19686+P20595).
T1 construct: expressed in transfected cells; host or cells: recombinant reporter cell line
T1 sequence (P19686 1-690): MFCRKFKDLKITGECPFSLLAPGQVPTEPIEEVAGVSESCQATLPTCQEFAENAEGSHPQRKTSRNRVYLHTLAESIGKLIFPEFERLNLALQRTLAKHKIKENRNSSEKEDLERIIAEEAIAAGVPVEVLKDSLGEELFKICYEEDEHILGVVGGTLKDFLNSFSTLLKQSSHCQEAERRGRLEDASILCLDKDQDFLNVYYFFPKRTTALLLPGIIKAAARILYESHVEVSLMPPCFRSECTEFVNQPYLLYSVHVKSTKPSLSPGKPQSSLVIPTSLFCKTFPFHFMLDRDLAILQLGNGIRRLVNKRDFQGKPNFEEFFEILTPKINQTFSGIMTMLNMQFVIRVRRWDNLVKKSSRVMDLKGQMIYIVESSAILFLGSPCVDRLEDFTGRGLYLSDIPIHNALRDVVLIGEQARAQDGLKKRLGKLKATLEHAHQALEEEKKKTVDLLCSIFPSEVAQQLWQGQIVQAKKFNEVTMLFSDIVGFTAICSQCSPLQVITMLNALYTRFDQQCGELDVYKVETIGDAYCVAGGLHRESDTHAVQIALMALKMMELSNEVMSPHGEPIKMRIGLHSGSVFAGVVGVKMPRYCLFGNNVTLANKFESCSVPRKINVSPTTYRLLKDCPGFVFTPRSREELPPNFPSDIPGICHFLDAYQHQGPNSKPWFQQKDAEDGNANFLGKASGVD
T1 sequence (P20595 1-619): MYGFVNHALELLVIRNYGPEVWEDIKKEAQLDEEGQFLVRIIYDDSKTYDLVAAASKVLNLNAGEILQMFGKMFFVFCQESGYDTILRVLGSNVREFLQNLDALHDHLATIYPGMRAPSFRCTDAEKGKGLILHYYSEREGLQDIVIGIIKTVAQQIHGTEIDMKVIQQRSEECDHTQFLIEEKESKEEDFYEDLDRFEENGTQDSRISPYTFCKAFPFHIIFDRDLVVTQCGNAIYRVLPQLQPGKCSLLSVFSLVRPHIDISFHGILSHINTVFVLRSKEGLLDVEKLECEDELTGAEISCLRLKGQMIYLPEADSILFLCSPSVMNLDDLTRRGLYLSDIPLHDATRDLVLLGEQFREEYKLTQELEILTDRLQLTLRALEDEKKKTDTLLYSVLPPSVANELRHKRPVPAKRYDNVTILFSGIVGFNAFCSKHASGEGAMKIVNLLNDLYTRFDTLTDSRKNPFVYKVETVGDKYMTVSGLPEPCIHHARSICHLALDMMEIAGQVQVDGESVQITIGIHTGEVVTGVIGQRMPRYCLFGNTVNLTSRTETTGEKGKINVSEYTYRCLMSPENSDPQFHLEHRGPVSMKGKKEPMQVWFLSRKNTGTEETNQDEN
As to the kind of experiment: Action on recombinant guanylate cyclase reporter cell line. The settings on record: in some cases mean values from individual determinations. The experiment is classed as cell-based. An outline of the steps:
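Whole-cell reporter assay with recombinant guanylate cyclase; endpoint = minimal effective concentration.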
Turning to `Cc1nc2c(OCc3c(F)cccc3F)cccn2c1C(=O)NC1CCNc2ccc(C(F)(F)F)cc21` (single isomer, unassigned; ent-8) [Example 111, ent-8-[(2,6-difluorobenzyl)oxy]-2-methyl-N-[6-(trifluoromethyl)-1,2,3,4-tetrahydroquinolin-4-yl]imidazo[1,2-a]pyridine-3-carboxamide], the “MEC (minimal effective concentration)” value was found to be 1.00 µM.
Regarding `CCCc1nc2c(OCc3c(F)cccc3F)cc(C)cn2c1C(=O)NCC(C)(N)CC` (stereo not drawn) [Example 327, ent-N-(2-amino-2-methylbutyl)-8-[(2,6-difluorobenzyl)oxy]-6-methyl-2-propylimidazo[1,2-a]pyridine-3-carboxamide], the “MEC (minimal effective concentration)” value came to 1.00 µM.
As to `CCCC(C)(N)CNC(=O)c1c(C)nc2c(OCc3c(F)ccc(C4CC4)c3F)cc(C)cn12` (stereo not drawn) [Example 359, ent-N-(2-amino-2-methylpentyl)-8-[(3-cyclopropyl-2,6-difluorobenzyl)oxy]-2,6-dimethylimidazo[1,2-a]pyridine-3-carboxamide], the “MEC (minimal effective concentration)” value came to 3.00 µM.
With `Cc1nc2c(OCc3c(F)cccc3F)cc(Cl)cn2c1C(=O)NCC(C)(N)C(F)(F)F` (single isomer, unassigned) [Example 237, ent-N-(2-Amino-3,3,3-trifluoro-2-methylpropyl)-6-chloro-8-[(2,6-difluorobenzyl)oxy]-2-methyl-imidazo[1,2-a]pyridine-3-carboxamide], the “MEC (minimal effective concentration)” value is 0.30 µM.
Take `Cc1nc2c(OCc3c(F)cccc3F)cc(Cl)cn2c1C(=O)NCC(C)(N)CC(C)C` (racemic) [Example 225, rac-N-(2-Amino-2,4-dimethylpentyl)-6-chloro-8-[(2,6-difluorobenzyl)oxy]-2-methylimidazo[1,2-a]pyridine-3-carboxamide]: the “MEC (minimal effective concentration)” value was 0.30 µM.
With `COc1ccc(CC(C)(CN)NC(=O)c2c(C)nc3c(OCc4c(F)cccc4F)cc(C)cn23)cc1` (racemic) [Example 386, rac-N-[1-amino-3-(4-methoxyphenyl)-2-methylpropan-2-yl]-8-[(2,6-difluorobenzyl)oxy]-2,6-dimethylimidazo[1,2-a]pyridine-3-carboxamide] the figure was 0.65 µM.
With `Cc1nc2c(OCc3c(F)cccc3F)cccn2c1C(=O)NC1CC(C)(C)NC(C)(C)C1` [Example 82, 8-[(2,6-Difluorobenzyl)oxy]-2-methyl-N-(2,2,6,6-tetramethylpiperidin-4-yl)imidazo[1,2-a]-pyridine-3-carboxamide] the figure was 0.20 µM; with `Cc1nc2c(OCc3c(F)cccc3F)cccn2c1C(=O)NCC(C(C)C)N(C)C` (single isomer, unassigned; ent-8) [Example 189, ent-8-[(2,6-Difluorobenzyl)oxy]-N-[2-(dimethylamino)-3-methylbutyl]-2-methylimidazo[1,2-a]-pyridine-3-carboxamide], 3.00 µM; with `COCC(C)(N)CNC(=O)c1c(C)nc2c(OCc3c(F)cccc3F)cc(C)cn12` (single isomer, unassigned) [Example 198, ent-N-(2-Amino-3-methoxy-2-methylpropyl)-8-[(2,6-difluorobenzyl)oxy]-2,6-dimethylimidazo-[1,2-a]pyridine-3-carboxamide], 0.30 µM.
Turning to `Cc1nc2c(OCC3CCCCC3)cccn2c1C(=O)NC(CN)c1ccc(F)c(F)c1` (single isomer, unassigned) [Example 179, ent-N-[2-Amino-1-(3,4-difluorophenyl)ethyl]-8-(cyclohexylmethoxy)-2-methylimidazo[1,2-a]-pyridine-3-carboxamide], the “MEC (minimal effective concentration)” value was 1.00 µM.
Turning to `Cc1nc2c(OCc3c(F)cccc3F)cccn2c1C(=O)NC1CNc2ccccc21` (single isomer, unassigned; ent-8) [Example 47, ent-8-[(2,6-Difluorobenzyl)oxy]-N-(2,3-dihydro-1H-indol-3-yl)-2-methylimidazo[1,2-a]pyridine-3-carboxamide], the “MEC (minimal effective concentration)” value came out at 0.30 µM.
With `Cc1cc(OCc2c(F)cccc2F)c2nc(C)c(C(=O)NCC(C)(N)CC(C)C)n2c1` (single isomer, unassigned) [Example 220, ent-N-(2-Amino-2,4-dimethylpentyl)-8-[(2,6-difluorobenzyl)oxy]-2,6-dimethylimidazo[1,2-a]-pyridine-3-carboxamide], the “MEC (minimal effective concentration)” value amounted to 0.10 µM.
Take `Cc1nc2c(OCc3c(F)cccc3F)cccn2c1C(=O)NCCNCC(F)F` [Example 169]: the “MEC (minimal effective concentration)” value is 1.65 µM.
Take `CC[C@@H](N)CNC(=O)c1c(C)nc2c(OCc3c(F)cccc3F)cc(Cl)cn12` [Example 35, ent-N-[(2R)-2-aminobutyl]-6-chloro-8-[(2,6-difluorobenzyl)oxy]-2-methyl-imidazo[1,2-a]-pyridine-3-carboxamide]: the “MEC (minimal effective concentration)” value amounted to 1.00 µM.
Turning to `CCCC(C)(N)CNC(=O)c1c(C)nc2c(OCc3c(F)cccc3F)cc(N3CCOCC3)cn12` (single isomer, unassigned; enantiomer b) [Example 280, ent-N-(2-amino-2-methylpentyl)-8-[(2,6-difluorobenzyl)oxy]-2-methyl-6-(morpholin-4-yl)imidazo[1,2-a]pyridine-3-carboxamide (Enantiomer B)], the “MEC (minimal effective concentration)” value amounted to 0.65 µM.
Turning to `CCCC(C)(N)CNC(=O)c1c(C)nc2c(OCc3c(F)cccc3F)cc(CC)cn12` (stereo not drawn) [Example 323, ent-N-(2-amino-2-methylpentyl)-8-[(2,6-difluorobenzyl)oxy]-6-ethyl-2-methylimidazo[1,2-a]pyridine-3-carboxamide], the “MEC (minimal effective concentration)” value is 0.30 µM.
With `Cc1nc2c(OCc3c(F)cccc3F)cccn2c1C(=O)NC(CN)c1ccc(F)c(F)c1` (single isomer, unassigned; enantiomer a) [Example 12, ent-N-[2-Amino-1-(3,4-difluorophenyl)ethyl]-8-[(2,6-difluorobenzyl)oxy]-2-methylimidazo[1,2-a]-pyridine-3-carboxamide (Enantiomer A)] the figure was 1.00 µM; with `Cc1cc(OCc2c(F)cccc2F)c2nc(C)c(C(=O)NC3CNCC3C(F)(F)F)n2c1` (mixture of isomers) [Example 313, 8-[(2,6-Difluorobenzyl)oxy]-2,6-dimethyl-N-[4-(trifluoromethyl)pyrrolidin-3-yl]imidazo[1,2-a]pyridine-3-carboxamide (mixture of stereoisomers)], 0.30 µM.
For `Cc1cc(OCc2c(F)cccc2F)c2nc(C)c(C(=O)NCC(N)c3cccc(OC(F)(F)F)c3)n2c1` (racemic) [Example 377, rac-N-{2-amino-2-[3-(trifluoromethoxy)phenyl]ethyl}-8-[(2,6-difluorobenzyl)oxy]-2,6-dimethylimidazo[1,2-a]pyridine-3-carboxamide], the “MEC (minimal effective concentration)” value stood at 3.00 µM.
With `Cc1cc(OCc2c(F)cccc2F)c2nc(C)c(C(=O)NCC(C)(N)COCc3ccccc3)n2c1` (racemic) [Example 265, rac-N-[2-amino-3-(benzyloxy)-2-methylpropyl]-8-[(2,6-difluorobenzyl)oxy]-2,6-dimethylimidazo[1,2-a]pyridine-3-carboxamide], the “MEC (minimal effective concentration)” value amounted to 0.30 µM.

Values taken from patent publication US20150274719A1, “AMINO-SUBSTITUTED IMIDAZO[1,2-A]PYRIDINECARBOXAMIDES AND THEIR USE” (BAYER PHARMA AKTIENGESELLSCHAFT, priority 2012, published 2015).
